These results are taken from US7223764B2, “2,4-bis (trifluoroethoxy)pyridine compound and drug containing the compound” (Kowa Co., Ltd., priority 2003, dated 2007).

In brackets after ≈: the same amount, converted by molar mass. Counter-ions that a name gives are not always drawn.

Data set [1] can be described thus: Test on stability against metabolism in human liver microsome. Conditions: 30 minutes after initiation of reaction, 37° C., FIG. 1. It counts as in vitro ADME. The procedure:
In accordance with Table 2 described below, an NRS (NADPH regenerating system) solution and 16% human serum albumin were added to 0.1 mol/L phosphate buffer (pH 7.4), and a solution of a test compound (100 μM) in acetonitrile (0.01 mL) was added thereto. The mixture was pre-incubated for five minutes in a warm bath at 37° C., and human liver microsome (POOLED HUMAN LIVER MICROSOMES, Lot. No. 20, product of GENTEST) was added thereto, followed by allowing reaction for 30 minutes in a warm bath at 37° C. An aliquot (0.25 mL) was collected from the reaction mixture 0 and 30 minutes after the start of reaction, followed by extraction*. The amount of the test compound was determined through HPLC. Residual percentage of the unchanged compound after 30 minutes was calculated based on the following equation: peak area after 30 minutes/peak area at 0 minute)×100.
To each sample, gkycine buffer (pH 10, 1.0 mL), an internal standard substance (0.1 mL), and tert-butyl methyl ether (5.0 mL) were added. The mixture was shaken for ten minutes and then centrifuged at 2,500 rpm […], and the […] was collected.
On the technique in general: Liver microsomes are vesicles of endoplasmic reticulum, rich in cytochrome P450 enzymes.

Data set [2] concerns the target T1, ACAT (Mus musculus, UniProt Q61263).
T1 construct: endogenous in cells; host or cells: J774 (J774A) cells
T1 sequence (Q61263 1-540): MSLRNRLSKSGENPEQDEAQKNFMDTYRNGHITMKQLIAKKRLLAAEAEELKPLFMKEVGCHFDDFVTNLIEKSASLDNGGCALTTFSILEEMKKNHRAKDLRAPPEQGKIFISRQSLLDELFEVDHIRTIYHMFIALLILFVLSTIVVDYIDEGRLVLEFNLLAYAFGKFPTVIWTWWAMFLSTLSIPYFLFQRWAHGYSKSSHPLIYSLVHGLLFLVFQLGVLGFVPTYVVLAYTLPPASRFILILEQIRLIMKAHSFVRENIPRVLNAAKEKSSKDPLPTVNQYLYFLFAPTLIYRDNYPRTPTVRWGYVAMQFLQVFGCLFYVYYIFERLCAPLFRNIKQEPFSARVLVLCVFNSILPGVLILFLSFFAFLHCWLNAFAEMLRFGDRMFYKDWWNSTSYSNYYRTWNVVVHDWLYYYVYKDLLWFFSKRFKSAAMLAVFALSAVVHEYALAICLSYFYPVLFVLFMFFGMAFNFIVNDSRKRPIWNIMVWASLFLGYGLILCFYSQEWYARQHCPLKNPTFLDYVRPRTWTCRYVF
The data set is described as follows: Test for ACAT inhibitory activity in J774A cells (cholesterol ester production). Type of data set: cell-based. The procedure:
J774 cells (2×10^5 cells/well) were seeded on a 24-well plate and incubated for 24 hours in DMEM (10% FBS, 500 μL). After replacement with a new medium, 25-hydroxycholesterol (10 μg/mL) and ACAT inhibitor (final concentration: 0, 10^−9 to 10^−5 mol/L) were added thereto, followed by incubation for 18 hours. After washing with 0.9% sodium chloride, the lipid was extracted with hexane-isopropanol (3:2) (250 μL) and then with hexane-isopropanol (3:2) (250 μL) again. The extracts were combined, and the solvent was removed. The thus-obtained cholesterol ester (CE) was quantified through the fluorescent enzyme assay. The cells from which the lipid had been extracted were subjected to protein assay (micro BCA assay), to thereby determine the amount of CE per mg of protein.

Data set [3] in a line: Oral administration test in rats (plasma levels). It counts as in vivo, rat. The settings on record: 10 mg/kg p.o. The protocol: Each test compound was dissolved in a 0.01N hydrochloric acid solution, and the solution was perorally administered to male or female rats at 10 mg/5 mL/kg. Blood samples (0.25 mL each) were collected 30, 60, 120, 180, 240, and 360 minutes after administration. The collected blood samples were centrifuged for five minutes at 4° C. and 9,000 g, to thereby prepare plasma samples. The plasma samples were stored at −30° C. before measurement. The samples were subjected to the extraction procedure*, and plasma levels of the test compound were determined through LC/MS/MS.
(§1) The extraction was performed in a manner similar to that of the test on stability against metabolism in human liver microsome.

A short description of data set [4]: Solubility test (Japanese Pharmacopoeia Solution I). It counts as physicochemical. The settings on record: simulated gastric fluid, kinetic from dmso stock, pH 1.2, filtrate through 0.2-μm filter, HPLC. The procedure: Each test compound was dissolved in acetonitrile to form a 100 μM solution, and the solution was added to Japanese Pharmacopoeia Solution I to form a 1000 ng/mL solution. The resultant solution was stirred for ten minutes, and an aliquot (1 mL) was placed into an injection tube and then passed through a 0.2-μm filter (HLC-DISK 13, water/solvent, Kanto Kagaku Kabushiki-kaisya). The filtrate (0.5 mL) was subjected to the extraction procedure*, and the amount of the test compound was determined through HPLC.
as §1

By melting point is commonly meant the temperature of the solid-liquid transition. The IC50 is the concentration that gives 50% inhibition. A higher IC50 goes with weaker potency in that assay. The term AUC denotes the area under the concentration-time curve, a measure of exposure. A higher AUC goes with more exposure. By Cmax is commonly meant the peak of the concentration-time curve. One may read the solubility as the concentration that dissolves in the medium under given conditions. Read a high solubility as a readily soluble substance. `Cc1cc(OCC(F)(F)F)c(NC(=O)CN2CCN(CCSc3nc4ccc(F)cc4[nH]3)CC2)c(OCC(F)(F)F)n1` [Compound (1a), 2-[4-[2-(5-fluorobenzimidazol-2-ylthio)ethyl]piperazin-1-yl]-N-[2,4-bis(2,2,2-trifluoroethoxy)-6-methylpyridin-3-yl]acetamide] returned a melting point of 182 to 182.7 °C. In addition, the “residual percentage of the unchanged compound” value in data set [1] amounted to 27%. This compound also displayed an IC50 in data set [2] of 87 nM. In data set [3] (Female rat), this compound had an AUC of 5100 ng·h/mL and a Cmax of 3410 ng/mL. In data set [3] (Male rat), this compound showed an AUC of 367 ng·h/mL and a Cmax of 418 ng/mL. In data set [4], this compound gave a solubility at 10 min of 0.562 µg/mL (≈ 0.9 µM).

`Cc1cc(OCC(F)(F)F)c(NC(=O)CN2CCN(CCSc3nc4cc(F)c(F)cc4[nH]3)CC2)c(OCC(F)(F)F)n1` [Compound (1b), 2-[4-[2-(5,6-difluorobenzimidazol-2-ylthio)ethyl]piperazin-1-yl]-N-[2,4-bis(2,2,2-trifluoroethoxy)-6-methylpyridin-3-yl]acetamide] came in with a melting point of 191 to 192 °C. For the same compound, the “residual percentage of the unchanged compound” value in data set [1] came to 62%. Moreover, the IC50 in data set [2] is 75 nM. In data set [3] (Female rat), the AUC was 6550 ng·h/mL and the concentration peaked (Cmax) at 2840 ng/mL. For the same compound, in data set [3] (Male rat), the AUC was 917 ng·h/mL and the Cmax was 614 ng/mL. In data set [4], this compound came in with a solubility at 10 min of 0.422 µg/mL (≈ 0.657 µM).

Regarding `CSc1cc(C)nc(SC)c1NC(=O)CN1CCN(CCSc2nc3ccccc3[nH]2)CC1` [Compound (B).HCl, reference compound], the “residual percentage of the unchanged compound” value in data set [1] is on record as 16%. In data set [3] (Female rat), the AUC is 2470 ng·h/mL and the Cmax stood at 1170 ng/mL. Moreover, in data set [3] (Male rat), the AUC was 200 ng·h/mL and the Cmax was 207 ng/mL.
